For test [1], the target named is T1, human trypsin (Homo sapiens, UniProt P07477). Put plainly: Determination of inhibitor constants against trypsin (progress curves, Cbz-Gly-Gly-Arg-AMC). It is filed as biochemical. As to conditions: for k3: first-order rate constant; for k3/Ki: second-order rate constant. As for the experimental part:
(§1) Recombinant protease activities were assessed using the cognate fluorogenic substrates (final concentration 50 μM) as follows: trypsin (Cbz-Gly-Gly-Arg-AMC), neutrophil elastase (MeO-Suc-Ala-Ala-Pro-Val-AMC) and chymotrypsin (Suc-Ala-Ala-Pro-Phe-AMC). The assay in the presence or absence of protease inhibitors at a range of final concentrations was performed using a standard microtitre plate format. Substrate hydrolysis, at 37°C, was monitored over a 60 min period by measuring the rate of increase in fluorescence (at λex 360 nm, λem 480 nm) using a FLUOstar Optima microplate reader (BMG Labtech).
A broad range of inhibitor concentrations were prepared from a 10 mM stock solution of the five test compounds (NAP851, NAP966, NAP987, NAP884 and NAP858) in N,N-dimethyformamide (DMF). The fluorogenic substrate, Cbz-Gly-Gly-Arg-AMC, was diluted in assay buffer (PBS, pH 7.4) and used at a fixed concentration of 50 μM. All inhibition assays were performed in microtitre plates maintained at 37°C in a final volume of 100 μL. The reaction was initiated by the addition of human trypsin (0.01 μg/well) and the rate of substrate hydrolysis continuously recorded at λex 360 nm, λem 480 nm using a FLUOstar Optima microplate reader (BMG Labtech). The resultant inhibition progress curve for the putative protease inhibitors were analysed according to the kinetic models developed by Tian and Tsou ([Tian and Tsou, 1982]) and Walker and Elmore ([Walker and Elmore, 1984]), for irreversible inhibitors, using GRAFIT (Erithacus Software) as described previously ([Ferguson et al., 2016]).

Test [2] addresses T2, neutrophil elastase (Homo sapiens, UniProt P08246).
T2 construct: purchased Calbiochem
T2 sequence (P08246 30-267): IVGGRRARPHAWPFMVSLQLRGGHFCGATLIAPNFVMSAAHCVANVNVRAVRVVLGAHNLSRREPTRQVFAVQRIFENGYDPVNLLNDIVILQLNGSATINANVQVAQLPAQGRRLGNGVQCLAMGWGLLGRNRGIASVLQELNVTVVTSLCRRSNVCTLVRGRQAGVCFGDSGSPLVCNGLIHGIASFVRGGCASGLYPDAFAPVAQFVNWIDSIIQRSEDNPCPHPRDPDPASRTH
The experiment in a line: Click chemistry labelling of neutrophil elastase with rhodamine-azide. Type of test: binding. As to conditions: NE 1 μg, 30 min, 37°C. On the procedure:
(§2) Samples of recombinant protease (trypsin and neutrophil elastase) were treated with alkyne-containing probe NAP884 at a concentration of 50 μM, for 30 min at 37°C. Samples pre-treated with competitive inhibitor (Cbz-Arg^P(OPh)2 for trypsin and Cbz-Val^P(OPh)2 for neutrophil elastase) for 30 min prior to addition of NAP884, were included for comparison. Following treatment with NAP884, DMSO (25% v/v final concentration), rhodamine-X azide (60 µM final concentration), copper (II)-TBTA complex (1 mM final concentration) and freshly prepared sodium ascorbate (1 mM final concentration) were added. The samples were mixed and incubated at room temperature in the dark for 1 h with gentle agitation. Samples were then denatured with SDS-containing reducing treatment buffer (10 min at 95°C), followed by resolution by SDS-PAGE and visualisation under UV light.

Test [3] concerns trypsin. The experiment in a line: Off-target fluorogenic substrate assay, trypsin. As to conditions: across the range of concentrations studied, vs chymotrypsin and NE. Type of test: biochemical. On the procedure: as §1
Test [4] deals with trypsin. Put plainly: Click chemistry labelling of trypsin with rhodamine-azide. Type of test: binding. As to conditions: trypsin 1 μg. As for the experimental part:
as §2, with “Samples” for “Samples of recombinant protease (trypsin and neutrophil elastase) were treated with alkyne-containing probe NAP884 at a concentration of 50 μM, for 30 min at 37°C. Samples”

In the next test the test system is chymotrypsin. The experiment in a line: Off-target fluorogenic substrate assay, chymotrypsin. Type of test: biochemical. On the procedure: as §1
The target of test [5] is T2, neutrophil elastase. Put plainly: Off-target fluorogenic substrate assay, neutrophil elastase. Particulars: 50 μM (highest concentration tested); read-out: inhibition of NE (decrease in activity) relative to controls. It is filed as biochemical. On the procedure:
as §1

Test [6] concerns the target T1, human trypsin. On the set-up: method as in PMID 10611275. Particulars: ref [30]; cited from earlier work.
For a further test, the target named is T3, matriptase (Homo sapiens, UniProt Q9Y5Y6).
T3 construct: purchased R and D Systems
T3 sequence (Q9Y5Y6 615-855 limits assumed): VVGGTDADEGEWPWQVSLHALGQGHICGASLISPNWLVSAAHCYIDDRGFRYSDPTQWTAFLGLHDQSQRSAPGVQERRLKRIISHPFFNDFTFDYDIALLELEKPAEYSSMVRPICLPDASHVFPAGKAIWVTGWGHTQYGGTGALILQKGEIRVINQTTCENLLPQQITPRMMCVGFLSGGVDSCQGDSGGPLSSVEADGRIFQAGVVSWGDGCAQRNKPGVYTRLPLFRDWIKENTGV
On the set-up: method as in Reihill et al., 2016. As to conditions: in words; ref Reihill et al., 2016; cited from earlier work.

Another test concerns HAT. On the set-up: method as in Reihill et al., 2016. As to conditions: in words; ref Reihill et al., 2016; cited from earlier work.
In test [7] the test system is trypsin. The experiment in a line: Activity-based probe labelling of trypsin (SDS-PAGE, Western blot, streptavidin-HRP). Type of test: binding. Particulars: probe 50 μM, 30 min, 37°C. On the procedure: Samples of recombinant protease (trypsin, human airway trypsin-like protease (HAT), matriptase, thrombin or neutrophil elastase, as indicated in the relevant figure legends) were treated with putative ABPs at a concentration of 50 μM, for 30 min, at 37°C. A control sample was prepared by treating recombinant protease with solvent control only. A further sample was prepared where Cbz-Arg^P(OPh)2 was added 30 min prior to the addition of the ABP under examination. […] All treated samples were then denatured with SDS-containing reducing treatment buffer (10 min at 95°C), followed by resolution by SDS-PAGE and subjected to Western blotting. Note, only stable covalent bonds between the ABP and protease active site would survive the harsh denaturing conditions involved in the resolution process. Resolved proteins were then transferred on to nitrocellulose membrane and labelled with streptavidin-HRP. The ABP-protease complex was then visualised following treatment with Luminata Forte HRP substrate.

Where [8] appears, read: PBS pH 7.4, 37°C, 50 μM Cbz-Gly-Gly-Arg-AMC, ±S.E.M., three determinations, read-out: Ki.
The mark [9] stands for this setting: PBS pH 7.4, 37°C, ±S.E.M., three determinations.

Consider five compounds from publication PMC9068901, “Novel Inhibitors and Activity-Based Probes Targeting Trypsin-Like Serine Proteases” (Frontiers in Chemistry, 2022).

Molecules are shown by their SMILES. Like-named read-outs stand apart in the source and are kept apart here. *1 amine or outer side, *2 acyl side, *3 side chain or, on linkers, in order; H or OH if unused. Where a SMILES comes first, the peptide text is derived from it. Side-chain parts run from the residue outwards. [ ]: non-standard residue; d: D form. The star is where a group is joined. Biotin = O=C1N[C@H]2[C@H](CS[C@H]2CCCCC(=O)*)N1; Gly(N-(CH2)3-guanidino) = N=C(N)NCCCNCC(=O)O; Glutaryl = O=C(CCCC(=O)[*:2])[*:1]; X4 = O=C(Oc1c(F)c(F)c(F)c(F)c1F)*; X2 = O=C1CCC(=O)N1OC(=O)*; X3 = C#Cc1cccc(N*)c1; Ahx = NCCCCCC(=O)O; X1 = O=C(n1cncn1)* Some results are limits rather than exact numbers.

One may read the Ki as the equilibrium dissociation constant of an inhibitor or competing ligand from its target. Turning to `N=C(N)NCCCN(CC(=O)NCC(=O)NCC(=O)NCCCCCC(=O)N[C@@H](CCCCNC(=O)CCCC[C@@H]1SC[C@@H]2NC(=O)N[C@@H]21)C(=O)O)C(=O)n1cncn1` [NAP851] (X1-[Gly(N-(CH2)3-guanidino)]GG[Ahx]K(Biotin)-OH; N-terminus assumed), the Ki on human trypsin [1] (setting [8]) came to 7560 nM. At human trypsin [1] (setting [9]), the k3 is 0.160 (±0.020) min^−1 and the k3/Ki was 2.46 (±0.858) x 10^4 M^−1 min^−1. In addition, the “substrate turnover at prolonged incubation” value at human trypsin [1] (progress curves, 60 min incubation) was “slight increase in fluorescence, due to residual substrate turnover”. Besides, on human trypsin [1] (read-out: Ki), the inhibition constant Ki was about 7600 nM. Also, on human trypsin [1] (trypsin), the “k3/Ki fold smaller than NAP858” value is recorded as about 8 fold, the “k3/Ki fold smaller than NAP897/NAP884” value is about 4 fold and the “k3/Ki fold smaller than NAP966” value is about 6 fold.
The term inhibition denotes the change of the read-out against control, counted positive when it falls. Take `C#Cc1cccc(NC(=O)CCCC(=O)NCCCC[C@H](NC(=O)CCCCCNC(=O)CNC(=O)CNC(=O)CN(CCCNC(=N)N)C(=O)ON2C(=O)CCC2=O)C(=O)O)c1` [NAP884] (X2-[Gly(N-(CH2)3-guanidino)]GG[Ahx]K([Glutaryl-X3])-OH): the Ki at human trypsin [1] (setting [8]) is 420 nM. The k3 on human trypsin [1] (setting [9]) is given as 0.528 (±0.064) min^−1. For the same compound, on human trypsin [1] (setting [9]), the k3/Ki is reported as 1.34 (±0.351) x 10^6 M^−1 min^−1. For the same compound, the “labelling of NE” value on neutrophil elastase [2] is listed as “complete absence of labelling of NE”. For the same compound, the “selectivity of action for trypsin” value in the test on trypsin [3] is reported as “pronounced selectivity of action in inhibiting trypsin”. Also, the values for the detection of trypsin entry with trypsin [4] (probe 1 μM), in the test with trypsin [4] (probe 10 μM) and with trypsin [4] (probe 50 μM) were “not detectable”, “enabled the detection of trypsin” and “enabled the detection of trypsin”, respectively. For the same compound, in the test with chymotrypsin (in words), the “inhibitory behaviour against chymotrypsin” value is on record as “similarly discriminating inhibitory behaviour against trypsin compared to chymotrypsin”. The inhibition at 50 µM on neutrophil elastase [5] was about 50%.
For `N=C(N)NCCC[C@H](NC(=O)CCC(=O)NCCCOCCOCCOCCCNC(=O)CCCC[C@@H]1SC[C@@H]2NC(=O)N[C@@H]21)P(=O)(Oc1ccccc1)Oc1ccccc1` [QUB-TL1], at human trypsin [6], the inhibition constant Ki is 174 nM, the k3 is 0.284 min⁻¹ and the k3/Ki is 27300 M⁻¹ s⁻¹. The inhibition of matriptase entry on matriptase is “potent inhibitor”. Further, the “inhibition of HAT” value with HAT is given as “potent inhibitor”.
For the compound `N=C(N)NCCCN(CC(=O)NCC(=O)NCC(=O)NCCCCCC(=O)N[C@@H](CCCCNC(=O)CCCC[C@@H]1SC[C@@H]2NC(=O)N[C@@H]21)C(=O)O)C(=O)Oc1c(F)c(F)c(F)c(F)c1F` [NAP966] (X4-[Gly(N-(CH2)3-guanidino)]GG[Ahx]K(Biotin)-OH), the inhibitory constant (Ki) on human trypsin [1] (Ki) was about 2100 nM. Moreover, the Ki at human trypsin [1] (Ki, PBS pH 7.4, 37°C, 50 μM Cbz-Gly-Gly-Arg-AMC, ±S.E.M., three determinations) was 2120 nM. At human trypsin [1] (setting [9]), the k3 was 0.401 (±0.007) min^−1 and the k3/Ki is on record as 1.92 (±0.250) x 10^5 M^−1 min^−1.
Turning to `N=C(N)NCCCN(CC(=O)NCC(=O)NCC(=O)NCCCCCC(=O)N[C@@H](CCCCNC(=O)CCCC[C@@H]1SC[C@@H]2NC(=O)N[C@@H]21)C(=O)O)C(=O)ON1C(=O)CCC1=O` [NAP897] (X2-[Gly(N-(CH2)3-guanidino)]GG[Ahx]K(Biotin)-OH), the Ki at human trypsin [1] (setting [8]) is 663 nM. For the same compound, at human trypsin [1] (setting [9]), the k3 is reported as 0.741 (±0.225) min^−1 and the k3/Ki is 1.35 (±0.376) x 10^6 M^−1 min^−1. In addition, in the test on trypsin [3], the “selectivity of action for trypsin” value is “pronounced selectivity of action in inhibiting trypsin”. Besides, the labelling of trypsin entry with trypsin [7] is “labelling of a single protein band corresponding to the correct molecular mass of trypsin”. The “inhibition of chymotrypsin relative to controls” value in the test with chymotrypsin (50 μM (highest concentration tested)) is listed as under 10%. Moreover, on neutrophil elastase [5], the inhibition at 50 µM is under 10%.
